Consider one compound from ChEMBL document CHEMBL2073747, “Methadone inhibits rhodamine123 transport in Caco-2 cells” (Drug Metab Dispos, 2001).

The target of data set [1] is T1, ATP-dependent translocase ABCB1 (Homo sapiens, UniProt P08183). The data set can be described thus: TP_TRANSPORTER: inhibition of Rhodamine 123 transepithelial transport (basal to apical) (Rhodamine 123: 5 uM) in Caco-2 cells. The class given is functional, cell-based.
The target of data set [2] is T1, ATP-dependent translocase ABCB1. Kind of data set: TP_TRANSPORTER: transepithelial transport (basal to apical) in Caco-2 cells. The class given is functional, cell-based.

T1 sequence (P08183 whole entry): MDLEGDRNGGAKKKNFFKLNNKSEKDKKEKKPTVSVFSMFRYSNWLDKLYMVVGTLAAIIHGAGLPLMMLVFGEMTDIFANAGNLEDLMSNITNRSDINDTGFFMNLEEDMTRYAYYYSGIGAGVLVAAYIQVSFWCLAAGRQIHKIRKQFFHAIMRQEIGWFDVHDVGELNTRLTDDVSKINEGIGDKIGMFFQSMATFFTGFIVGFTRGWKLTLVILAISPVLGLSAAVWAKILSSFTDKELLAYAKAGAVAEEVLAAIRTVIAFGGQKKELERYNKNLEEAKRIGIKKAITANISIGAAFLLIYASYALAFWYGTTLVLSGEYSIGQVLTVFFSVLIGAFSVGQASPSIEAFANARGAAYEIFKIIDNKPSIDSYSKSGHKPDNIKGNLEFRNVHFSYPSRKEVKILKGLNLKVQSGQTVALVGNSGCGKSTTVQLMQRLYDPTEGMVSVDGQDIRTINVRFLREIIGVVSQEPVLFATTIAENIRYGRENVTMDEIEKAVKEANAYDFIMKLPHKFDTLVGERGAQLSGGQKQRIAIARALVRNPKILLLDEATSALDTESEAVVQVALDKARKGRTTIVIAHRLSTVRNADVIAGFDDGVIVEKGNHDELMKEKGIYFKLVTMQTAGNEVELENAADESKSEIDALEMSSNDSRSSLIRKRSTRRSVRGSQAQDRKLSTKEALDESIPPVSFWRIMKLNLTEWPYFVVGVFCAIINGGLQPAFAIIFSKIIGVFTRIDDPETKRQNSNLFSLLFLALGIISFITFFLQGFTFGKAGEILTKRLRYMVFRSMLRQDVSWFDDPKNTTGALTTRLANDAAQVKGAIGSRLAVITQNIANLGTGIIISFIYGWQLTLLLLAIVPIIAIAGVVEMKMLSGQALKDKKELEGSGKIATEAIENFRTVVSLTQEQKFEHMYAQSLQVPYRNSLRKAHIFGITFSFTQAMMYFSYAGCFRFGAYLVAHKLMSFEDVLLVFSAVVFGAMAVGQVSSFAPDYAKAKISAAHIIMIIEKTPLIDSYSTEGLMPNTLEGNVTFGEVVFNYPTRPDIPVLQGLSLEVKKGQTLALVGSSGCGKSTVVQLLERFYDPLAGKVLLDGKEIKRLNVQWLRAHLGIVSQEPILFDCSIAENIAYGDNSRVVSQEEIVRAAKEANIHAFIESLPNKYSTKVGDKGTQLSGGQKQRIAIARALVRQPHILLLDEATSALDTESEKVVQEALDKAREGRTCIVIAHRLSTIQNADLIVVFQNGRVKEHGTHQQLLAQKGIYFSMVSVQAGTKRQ

A word on the IC50: it is the concentration that inhibits the measured activity by half. Turning to `CCC(=O)C(CC(C)N(C)C)(c1ccccc1)c1ccccc1` (configuration not stated) [METHADONE], in data set [1], inhibition was half-maximal at 7.5 µM (IC50). Also, in data set [2], the Activity entry was “is not a substrate [-]”.
